Experimental data from paper PMC8910920 (International Journal of Molecular Sciences, 2022).
Values after ≈ are worked out from the molar mass of the structure shown.

What was measured:
[1] = system: CCI rats, cold hypersensitivity; assay: CCI model of neuropathic pain, cold sensitivity (acetone test); assay type: in vivo, rat; conditions: for cold hypersensitivity in CCI rats: 30 min after injection
Procedure: The CCI model of neuropathic pain allowed the evaluation of the effect RGM8-51 on cold, heat and mechanical sensitivity, as assayed by the acetone test, the Hargreaves test, and the automatized von Frey test, respectively. RGM8-51 was applied either locally (i.pl.; 10 µg) in the affected paw or systemically (intraperitoneally, i.p., 10 and 30 mg/kg) and the effect evaluated before (Baseline) and after CCI surgery. The nocifensive response after administration of RGM8-51 was compared with that of vehicle, while non-operated animals and the uninjured (contralateral) hind paw in CCI animals were used as controls.
Adult male Sprague-Dawley rats (weighing 200–220 g/6–8 weeks old) were used in these experiments. All experimental procedures were conducted according to the animal welfare guidelines of the European Community (European Directive 2010/63/UE) to minimize animal suffering and were approved by Universidad Complutense de Madrid and Comunidad de Madrid ethical committees on animal experimentation (PROEX 207.8/21). […]
For behavioral testing, rats were placed in individual methacrylate boxes with a wire mesh floor, and after a period of 15 min acclimatization, the cold, heat and mechanical sensitivity of the ipsilateral and contralateral paws was determined. Cold sensitivity was assessed with the acetone test. In total, 100 µL acetone were locally applied to the plantar surface of the hind paw and the duration of the subsequent nocifensive response (licking, brushing, and flinching of the paw) was determined during 60 s. Acetone application and assessment were repeated 2 times with a 5 min interval and the sum of the two values was recorded. Heat sensitivity was determined with the Hargreaves test, which uses infrared light as a heat source, with a Hargreaves apparatus (Serie 8, Model 336, IITC Life Science, Woodland Hills, CA USA). The light beam was directed to the plantar surface of the hind paw and the time from the beginning of irradiation to the appearance of first paw withdrawal movement was measured (paw withdrawal latency). […]

[2] = Aqueous solubility in simulated gastric fluid; assay type: physicochemical; conditions: simulated gastric conditions (pH < 5.5)
Procedure: These studies were subcontracted to Eurofins-CEREP or Eurofins-PANLABS. Briefly, agonists and antagonist assays were performed in cell cultures overexpressing the corresponding channel (CHO: TRPV1 and TRPA1; HEK293: TRPV3 and ASIC3). In vitro pharmacology, cellular channel functional assays: the compound was prepared in assay buffer to the final concentration, 10 μM. The compound wells, reference agonist and background vehicle controls were prepared in DMSO at 0.3%. The reference agonist for each Ion Channel assayed was prepared in a similar manner to serve as the assay control. […] The agonist assay was conducted on fluorimeter instruments where the test compound, vehicle controls, and reference agonist were added to the assay plate after a fluorescence baseline was established. […] For the antagonist assay, the compound was pre-incubated for five minutes at room temperature, and then challenged with the EC80 concentration of the reference agonist after establishment of a fluorescence baseline. […] Binding assay results are expressed as a percent of control specific binding. […] Aqueous solubility (μM) was determined by comparing the peak area of the principal peak in a calibration standard (200 μM) containing organic solvent (methanol/water, 60/40, v/v) with the peak area of the corresponding peak in a buffer sample. […] The amount of compound in organic phase was calculated by subtraction. […]

C[C@@H]1C(=O)N(C[C@H](Cc2ccccc2)N(Cc2ccccc2)Cc2ccccc2)[C@]1(Cc1ccccc1)C(=O)OC(C)(C)C [RGM8-51, 4(S)-Benzyl-3S-methyl-4-(tert-butoxy)carbonyl-1-[(2′S-dibenzylamino-3′-phenyl)prop-1′-yl]-2-oxoazetidine]
cold hypersensitivity in CCI rats ([1]; i.p. 10 and 30 mg/kg): inhibited it dose-dependently
cold hypersensitivity in CCI rats ([1]; i.pl. 10 µg): reduced cold hypersensitivity
response to cold in non-operated animals (baseline) or contralateral uninjured paw ([1]; i.pl. or i.p.): no effect was observed
solubility [2]: 198 µM (≈ 117 µg/mL)
